Results as given in ChEMBL document CHEMBL1143605, “A pharmacophore hypothesis for P-glycoprotein substrate recognition using GRIND-based 3D-QSAR” (2005).

Test system: MES-SA
Experiment: Inhibition of compound against MES-SA/DX5 cell line was determined using P-glycoprotein assay
Type: functional, Homo sapiens

Compared with `C=CC1CN2CCC1CC2C(=O)c1ccnc2ccc(OC)cc12` (stereo unspecified), `C[C@H]1C[C@H]2[C@@H]3CCC4=CC(=O)C=C[C@]4(C)[C@H]3C(=O)C[C@]2(C)[C@@]1(O)C(=O)CO` [MEPREDNISONE] is lower in “log10 % Pgp inhibition vs cyclosporin A” value: 1.26 for the first, 0.86 for the second.

Going from `CC(=O)c1ccc2c(c1)N(CCCN(C)C)c1ccccc1S2` [ACEPROMAZINE] to `CCSc1ccc2c(c1)N(CCCN1CCN(C)CC1)c1ccccc1S2` [THIETHYLPERAZINE], the “log10 % Pgp inhibition vs cyclosporin A” value rises from 0.8 to 1.26.

Going from `CCCCc1oc2ccccc2c1C(=O)c1cc(I)c(OCCN(CC)CC)c(I)c1` [AMIODARONE] to `CCCCOc1cc(C(=O)OCCN(CC)CC)ccc1N` [BENOXINATE], the “log10 % Pgp inhibition vs cyclosporin A” value falls from 1.46 to 0.84.

`CN1CCCC(n2nc(Cc3ccc(Cl)cc3)c3ccccc3c2=O)CC1` (stereo unspecified) [AZELASTINE] and `CSc1ccc2c(c1)N(CCC1CCCCN1C)c1ccccc1S2` (stereo unspecified) [THIORIDAZINE] are within 0.2 log units of each other in “log10 % Pgp inhibition vs cyclosporin A” value: 1.75 for the first, 1.65 for the second.

`CC(C)COCC(CN(Cc1ccccc1)c1ccccc1)N1CCCC1` (stereo unspecified) [BEPRIDIL] and `CC(C)(C)c1ccc(C(O)CCCN2CCC(C(O)(c3ccccc3)c3ccccc3)CC2)cc1` (stereo unspecified) [TERFENADINE] are within 0.2 log units of each other in “log10 % Pgp inhibition vs cyclosporin A” value: 1.56 for the first, 1.65 for the second.

Compared with `CN(C)CCOC(C)(c1ccccc1)c1ccc(Cl)cc1` (stereo unspecified) [CHLORPHENOXAMINE], `CN(C)C(=O)C(CCN1CCC(O)(c2ccc(Cl)cc2)CC1)(c1ccccc1)c1ccccc1` [LOPERAMIDE] is higher in “log10 % Pgp inhibition vs cyclosporin A” value: 0.91 for the first, 1.58 for the second.

`CN(C)CC/C=C1/c2ccccc2Sc2ccc(Cl)cc21` [CHLORPROTHIXENE] and `CN1CCN(CC/C=C2/c3ccccc3Sc3ccc(S(=O)(=O)N(C)C)cc32)CC1` [THIOTHIXENE] are within 0.2 log units of each other in “log10 % Pgp inhibition vs cyclosporin A” value: 1.27 for the first, 1.23 for the second.

`CC(C)/N=c1\cc2n(-c3ccc(Cl)cc3)c3ccccc3nc-2cc1Nc1ccc(Cl)cc1` [CLOFAZIMINE] and `CC(C)(C)c1ccc(C(=O)CCCN2CCC(OC(c3ccccc3)c3ccccc3)CC2)cc1` [EBASTINE] are within 0.2 log units of each other in “log10 % Pgp inhibition vs cyclosporin A” value: 1.8 for the first, 1.76 for the second.

Going from `COc1ccc([C@@H]2Sc3ccccc3N(CCN(C)C)C(=O)[C@@H]2OC(C)=O)cc1` [DILTIAZEM] to `CCC(COC(=O)c1cc(OC)c(OC)c(OC)c1)(c1ccccc1)N(C)C` (stereo unspecified) [TRIMEBUTINE], the “log10 % Pgp inhibition vs cyclosporin A” value rises from 1.18 to 1.75.

Going from `CC[C@H]1CN2CCc3cc(OC)c(OC)cc3[C@@H]2C[C@@H]1C[C@H]1NCCc2cc(OC)c(OC)cc21` [EMETINE] to `COc1ccc(CCN(C)CCCC(C#N)(c2ccc(OC)c(OC)c2)C(C)C)cc1OC` (stereo unspecified) [VERAPAMIL], the “log10 % Pgp inhibition vs cyclosporin A” value rises from 0.88 to 1.63.

First: OCCN1CCN(CCCN2c3ccccc3Sc3ccc(C(F)(F)F)cc32)CC1 [FLUPHENAZINE]
Second: CCc1nn(CCCN2CCN(c3cccc(Cl)c3)CC2)c(=O)n1CCOc1ccccc1 [NEFAZODONE]
The “log10 % Pgp inhibition vs cyclosporin A” value of the first is lower: 1.4 for the first, 1.83 for the second.

`CCN(CC)CC#CCOC(=O)C(O)(c1ccccc1)C1CCCCC1` (stereo unspecified) [OXYBUTYNIN] and `CCN(CC)C(=O)N[C@H]1C[C@@H]2c3cccc4[nH]cc(c34)C[C@H]2N(C)C1` [TERGURIDE] are within 0.2 log units of each other in “log10 % Pgp inhibition vs cyclosporin A” value: 1.12 for the first, 1 for the second.

First: Cc1nc2sccn2c(=O)c1CCN1CCC(=C(c2ccc(F)cc2)c2ccc(F)cc2)CC1 [RITANSERIN]
Second: OCc1cc(C(O)CNCCCCCCOCCCCc2ccccc2)ccc1O (stereo unspecified) [SALMETEROL]
The “log10 % Pgp inhibition vs cyclosporin A” value of the first is higher: 1.69 for the first, 0.83 for the second.
